Reference: ChEMBL document CHEMBL1909046, “DrugMatrix in vitro pharmacology data”

Tests used:
Melanocortin receptor 4 = Melanocortin receptor 4 (Homo sapiens, UniProt P32245); assay type: cell membranes, HEK293, Membrane; settings: hek293; further: in other assays of this panel Not Active means under 50% inhibition at 10 µM
[1] = target: T1, Cholecystokinin receptor type A (Homo sapiens, UniProt P32238); assay type: cell membranes, Membrane; settings: 1321-n1; further: in other assays of this panel Not Active means under 50% inhibition at 10 µM
T1 sequence (P32238 whole entry): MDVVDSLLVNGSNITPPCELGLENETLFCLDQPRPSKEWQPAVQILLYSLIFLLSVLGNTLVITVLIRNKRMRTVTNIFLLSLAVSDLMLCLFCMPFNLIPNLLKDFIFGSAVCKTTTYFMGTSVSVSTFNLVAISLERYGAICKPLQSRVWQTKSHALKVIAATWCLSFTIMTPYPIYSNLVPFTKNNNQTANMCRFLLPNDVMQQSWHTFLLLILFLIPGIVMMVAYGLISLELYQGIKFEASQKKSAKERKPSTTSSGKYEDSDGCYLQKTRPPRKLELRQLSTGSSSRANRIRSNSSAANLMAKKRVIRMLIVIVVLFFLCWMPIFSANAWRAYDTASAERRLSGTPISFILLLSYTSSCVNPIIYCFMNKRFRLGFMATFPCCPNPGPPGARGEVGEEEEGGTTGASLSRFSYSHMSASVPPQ

[2] = target: T2, Alpha-1B adrenergic receptor (Rattus norvegicus, UniProt P15823); experiment: DRUGMATRIX: Alpha-1B adrenergic receptor radioligand binding (ligand: prazosin); assay type: cell membranes, Wistar, Liver, Membrane; settings: Not Active = under 50% inhibition at 10 µM
T2 sequence (P15823 whole entry): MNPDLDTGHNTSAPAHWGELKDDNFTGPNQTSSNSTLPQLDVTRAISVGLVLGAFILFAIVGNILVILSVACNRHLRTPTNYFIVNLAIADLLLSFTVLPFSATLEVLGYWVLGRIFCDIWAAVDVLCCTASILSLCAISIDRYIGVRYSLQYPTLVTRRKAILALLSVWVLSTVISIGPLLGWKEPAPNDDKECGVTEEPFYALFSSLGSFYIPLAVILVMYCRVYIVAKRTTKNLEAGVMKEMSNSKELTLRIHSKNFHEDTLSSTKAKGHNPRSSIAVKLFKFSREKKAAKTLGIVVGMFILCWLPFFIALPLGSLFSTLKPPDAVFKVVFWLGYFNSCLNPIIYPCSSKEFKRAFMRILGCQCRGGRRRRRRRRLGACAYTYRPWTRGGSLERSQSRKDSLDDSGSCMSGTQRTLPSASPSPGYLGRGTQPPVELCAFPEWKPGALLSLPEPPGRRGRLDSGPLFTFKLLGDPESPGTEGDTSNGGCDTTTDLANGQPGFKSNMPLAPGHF

[3] = DRUGMATRIX: GABAA, Flunitrazepam, Central radioligand binding (ligand: [3H] Flunitrazepam); assay type: cell membranes, Rattus norvegicus, Wistar, Brain, Membrane; settings: Not Active = under 50% inhibition at 10 µM
Calcitonin receptor = target: T3, Calcitonin receptor (Homo sapiens, UniProt P30988); assay type: cell membranes, Membrane; settings: t47d; further: in other assays of this panel Not Active means under 50% inhibition at 10 µM
T3 sequence (P30988 whole entry): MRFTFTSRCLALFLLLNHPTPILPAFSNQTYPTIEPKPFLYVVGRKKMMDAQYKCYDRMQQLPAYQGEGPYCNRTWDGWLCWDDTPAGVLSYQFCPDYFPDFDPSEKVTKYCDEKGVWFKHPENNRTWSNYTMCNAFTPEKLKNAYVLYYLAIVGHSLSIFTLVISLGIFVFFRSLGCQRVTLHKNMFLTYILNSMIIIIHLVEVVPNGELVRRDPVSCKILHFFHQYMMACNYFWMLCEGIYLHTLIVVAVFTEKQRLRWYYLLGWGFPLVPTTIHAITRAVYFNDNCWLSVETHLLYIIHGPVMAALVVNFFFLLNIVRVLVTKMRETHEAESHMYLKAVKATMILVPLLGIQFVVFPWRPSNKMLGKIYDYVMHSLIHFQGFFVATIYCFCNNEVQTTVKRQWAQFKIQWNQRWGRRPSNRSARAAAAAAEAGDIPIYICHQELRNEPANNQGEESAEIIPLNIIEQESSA

[4] = target: Protein phosphatase 3 catalytic subunit alpha (Homo sapiens, UniProt Q08209); set-up: species or system Escherichia coli;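 further: inhibition of calcineurin (PP2B) enzyme activity, measured with DiFMUP as the substrate; in other assays of this panel Not Active means under 50% inhibition at 10 µM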
[5] = target: T4, Alpha-2A adrenergic receptor (Homo sapiens, UniProt P08913); assay type: cell membranes, Sf9, Membrane; settings: sf9; further: in other assays of this panel Not Active means under 50% inhibition at 10 µM
T4 sequence (P08913 whole entry): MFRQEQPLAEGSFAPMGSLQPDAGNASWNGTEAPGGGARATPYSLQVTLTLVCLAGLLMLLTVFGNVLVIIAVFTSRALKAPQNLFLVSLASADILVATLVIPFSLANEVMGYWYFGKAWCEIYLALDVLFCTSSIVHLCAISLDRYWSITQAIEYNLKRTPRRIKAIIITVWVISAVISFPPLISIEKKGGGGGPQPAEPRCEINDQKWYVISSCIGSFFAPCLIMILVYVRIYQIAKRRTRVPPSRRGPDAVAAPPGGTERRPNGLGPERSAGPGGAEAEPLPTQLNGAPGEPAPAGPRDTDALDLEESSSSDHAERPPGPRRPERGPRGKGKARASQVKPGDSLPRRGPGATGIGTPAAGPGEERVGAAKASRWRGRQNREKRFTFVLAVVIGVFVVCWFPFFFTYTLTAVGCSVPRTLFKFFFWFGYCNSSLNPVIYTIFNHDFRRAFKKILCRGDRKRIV

Sequence of Melanocortin receptor 4 (P32245 whole entry): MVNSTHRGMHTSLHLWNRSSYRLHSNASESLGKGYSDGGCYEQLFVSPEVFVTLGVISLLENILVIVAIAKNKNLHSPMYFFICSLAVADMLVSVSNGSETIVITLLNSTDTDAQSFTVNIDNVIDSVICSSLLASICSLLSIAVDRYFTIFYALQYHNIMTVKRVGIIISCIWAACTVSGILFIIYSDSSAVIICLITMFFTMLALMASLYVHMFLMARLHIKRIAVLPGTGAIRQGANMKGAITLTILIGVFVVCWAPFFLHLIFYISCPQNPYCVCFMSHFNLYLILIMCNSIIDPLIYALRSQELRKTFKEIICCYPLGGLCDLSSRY

Compound	IC50 (Melanocortin receptor 4)	IC50 [1]	IC50 [2]	IC50 [3]	Ki [3]	IC50 (Calcitonin receptor)	IC50 [4]	IC50 [5]	Ki [4]	Ki (Melanocortin receptor 4)	Ki [1]	Ki [2]	Ki (Calcitonin receptor)	Ki [5]	IC50 ([2]; read-out: IC50) [nM]	Ki ([2]; read-out: Ki) [nM]
CC(C)CN(C[C@@H](O)[C@H](Cc1ccccc1)NC(=O)O[C@H]1CCOC1)S(=O)(=O)c1ccc(N)cc1	Not Active	Not Active	Not Active	Not Active	Not Active	Not Active	Not Active	Not Active	–	–	–	–	–	–	–	–
c1ccc(Nc2ccc(Nc3ccccc3)cc2)cc1	Not Active	Not Active	Not Active	Not Active	Not Active	Not Active	Not Active	Not Active	–	–	–	–	–	–	–	–
COc1cc2c3cc1Oc1cc(ccc1O)C[C@@H]1c4c(cc(OC)c(O)c4Oc4ccc(cc4)C[C@@H]3N(C)CC2)CC[N+]1(C)C.[Cl-]	Not Active	Not Active	Not Active	Not Active	Not Active	Not Active	Not Active	Not Active	–	–	–	–	–	–	–	–
NC(=O)N1c2ccccc2CCc2ccccc21	Not Active	Not Active	Not Active	Not Active	Not Active	Not Active	Not Active	Not Active	–	–	–	–	–	–	–	–
O=C1CC[C@@H](N2C(=O)c3ccccc3C2=O)C(=O)N1	Not Active	Not Active	Not Active	Not Active	Not Active	Not Active	Not Active	Not Active	–	–	–	–	–	–	–	–
Cc1onc(O)c1CC(N)C(=O)O (racemic) [(R,S)-AMPA]	Not Active	Not Active	Not Active	Not Active	Not Active	Not Active	Not Active	Not Active	–	–	–	–	–	–	–	–
Cc1ccc2cc3c(ccc4ccccc43)c3c2c1CC3 [3-METHYLCHOLANTHRENE]	Not Active	Not Active	Not Active	Not Active	Not Active	Not Active	Not Active	Not Active	–	–	–	–	–	–	–	–
CC[C@@]1(O)C[C@H](O[C@H]2C[C@H](N(C)C)[C@H](O[C@H]3C[C@H](O)[C@H](O[C@H]4CCC(=O)[C@H](C)O4)[C@H](C)O3)[C@H](C)O2)c2c(cc3c(c2O)C(=O)c2c(O)cccc2C3=O)[C@H]1C(=O)OC [ACLARUBICIN]	Not Active	Not Active	Not Active	Not Active	Not Active	Not Active	Not Active	Not Active	–	–	–	–	–	–	–	–
Nc1nc2c(ncn2COCCO)c(=O)[nH]1 [ACYCLOVIR]	Not Active	Not Active	Not Active	Not Active	Not Active	Not Active	Not Active	Not Active	–	–	–	–	–	–	–	–
Cc1c(C)c2c(c(C)c1O)CC[C@@](C)(CCC[C@H](C)CCC[C@H](C)CCCC(C)C)O2 [ALPHA-TOCOPHEROL]	Not Active	Not Active	Not Active	Not Active	Not Active	Not Active	Not Active	Not Active	–	–	–	–	–	–	–	–
CN(C)c1nc(N(C)C)nc(N(C)C)n1 [ALTRETAMINE]	Not Active	Not Active	Not Active	Not Active	Not Active	Not Active	Not Active	Not Active	–	–	–	–	–	–	–	–
Nc1c(Br)cc(Br)cc1CN[C@H]1CC[C@H](O)CC1 [AMBROXOL]	Not Active	Not Active	Not Active	Not Active	Not Active	Not Active	Not Active	Not Active	–	–	–	–	–	–	–	–
NCCCCCC(=O)O [AMINOCAPROIC ACID]	Not Active	Not Active	Not Active	Not Active	Not Active	Not Active	Not Active	Not Active	–	–	–	–	–	–	–	–
CCC1(c2ccc(N)cc2)CCC(=O)NC1=O (centres undefined) [AMINOGLUTETHIMIDE]	Not Active	Not Active	Not Active	Not Active	Not Active	Not Active	–	Not Active	Not Active	–	–	–	–	–	–	–
Cc1ccc(/N=C/N(C)/C=N/c2ccc(C)cc2C)c(C)c1 [AMITRAZ]	Not Active	Not Active	Not Active	Not Active	Not Active	Not Active	Not Active	–	–	–	–	–	–	–	–	–
CCOC(=O)C1=C(COCCN)NC(C)=C(C(=O)OC)C1c1ccccc1Cl (centres undefined) [AMLODIPINE]	Not Active	Not Active	Not Active	Not Active	Not Active	Not Active	Not Active	–	–	–	–	–	–	–	–	–
COc1ccc(C[C@H]2NC[C@H](O)[C@H]2OC(C)=O)cc1 [ANISOMYCIN]	Not Active	Not Active	Not Active	Not Active	Not Active	Not Active	Not Active	Not Active	Not Active	Not Active	Not Active	Not Active	Not Active	Not Active	–	–
Nc1ncn([C@@H]2O[C@H](CO)[C@@H](O)[C@H]2O)c(=O)n1 [AZACITIDINE]	Not Active	Not Active	Not Active	Not Active	Not Active	Not Active	Not Active	Not Active	–	–	–	–	–	–	–	–
CN(C)C(=O)Oc1cc(OC(=O)N(C)C)cc(C(O)CNC(C)(C)C)c1 (centres undefined) [BAMBUTEROL]	Not Active	Not Active	Not Active	Not Active	Not Active	Not Active	Not Active	Not Active	–	–	–	–	–	–	–	–
c1ccc2c(c1)c1cccc3ccc4cccc2c4c31 [BENZO[E]PYRENE]	Not Active	Not Active	Not Active	Not Active	Not Active	Not Active	Not Active	Not Active	–	–	–	–	–	–	–	–
CN(C)CCCN1c2ccccc2Sc2ccc(Cl)cc21 [CHLORPROMAZINE]	–	Not Active	–	Not Active	Not Active	Not Active	Not Active	–	–	–	–	–	–	–	–	–
Clc1cccc(Cl)c1NC1=NCCN1 [CLONIDINE]	Not Active	Not Active	–	Not Active	Not Active	Not Active	Not Active	–	–	–	–	–	–	–	–	–
CCCN1C[C@H](CSC)C[C@@H]2c3cccc4[nH]cc(c34)C[C@H]21 [PERGOLIDE]	Not Active	Not Active	–	Not Active	Not Active	Not Active	Not Active	–	–	–	–	–	–	–	2620	1450
Cc1ccc(N(CC2=NCCN2)c2cccc(O)c2)cc1 [PHENTOLAMINE]	Not Active	Not Active	–	Not Active	Not Active	Not Active	Not Active	–	–	–	–	–	–	–	–	–
